Experimental data as given in patent US20260328779A1, “METHODS AND COMPOSITIONS FOR THE DIAGNOSIS AND TREATMENT OF IGA NEPHROPATHY” (Beth Israel Deaconess Medical Center, Inc., priority 2022, published 2026).
“Also recorded” adds a separate entry of the source.

Assays:
[1] = test system: anti-Tn CICs; assay: Dissociation of anti-Tn CICs by glycomimetic treatment (BN-APAGE-WB); assay type: biochemical, human; conditions: 100 mM, 2 h at 4° C.; anti-Tn CICs from IgAN patients
Protocol: Furthermore, it was tested whether the anti-Tn IgM immune complexes can be dissociated from Tn(+)IgA1 using compounds that mimic the Tn antigen-glycomimetics. For this purpose, the anti-Tn CICs were affinity-purified from the sera of IgAN patients; the anti-Tn CICs were treated with mock, α-methylGalNAc (glycomimetic compound, αGalNAc), or α-methylGlcNAc (control compound, αGlcNAc), followed by BN-APAGE-WB and probing for IgM, and IgA. […] An IgA1 signal was unable to be detected in mock and α-methylGlcNAc-treated samples (FIG. 5F, lane 1 and 3, bottom), indicating the IgA1 epitopes may be buried within the CICs and thus not available in this native page set-up for WB detection.
Samples (~0.1 mg) or for plain serum (1:200 dilution in PBS, […]) run on BN-APAGE were transferred onto activated PVDF membrane (Cat #IPVH00010, EMD Millipore, wet-transfer system, 40 V for 2 h). The membranes were quickly destained with 100% methanol, washed with TBST, and blocked with 5% (w/vol) non-fat milk in TBST for 1 h at RT. […]
For glycomimetic treatment, purified anti-Tn CICs (~0.1 mg) was pretreated with α-methylGalNAc (100 mM), α-methylGlcNAc (100 mM), or mock in PBS for 2 h at 4° C. on a rotator (10 rpm) and the samples were analyzed by BN-APAGE-WB and probed for IgM and IgA.

[2] = test system: primary human renal mesangial cells; assay: Inhibition of anti-Tn CICs-stimulated mesangial cell proliferation (Ki-67); assay type: cell-based; conditions: 30 min at RT
Protocol: […] of serum was mixed with […] of Tn(+)matrix beads or mock beads overnight at 4° C. (10 rpm). Supernatant was collected after pelleting the beads at 500×g for 30 sec at 4° C. After two rounds of such sequential anti-Tn CICs immunodepletion (serum-ID) and its control (serum-Mock), collected serum was filtered by syringe filter unit (Cat #SLHP033RS, Millipore Sigma) before use. Cells were cultured at ~90% confluency in 96-well plate, and starved in Mesangial cell media (Cat #4201) with 0.5% FBS (Cat #0010) and 0.05× mesangial cell growth supplement (MsCGS, Cat #4252) from ScienCell for 24 h at 37° C. prior to stimulation. Cells were stimulated with 5% serum-Mock, 5% serum-ID with or without exogenous anti-Tn CICs (50 ng/[…]/well, total) for 24 h at 37° C. incubator. Cells were fixed with 4% PFA with 0.05% Triton-X-100 in PBS for 20 min at 4° C. Fixed cells were blocked with 5% (vol/vol) goat serum in PBS for 1 h at 4° C., and incubated with anti-Ki-67 antibody (SP6, rabbit IgG, Cat #CRM325B, Biocare Medical, diluted to 1:50) in PBS for 1 h at 4° C. Cells were washed 3× with chilled PBS, and incubated with Alexa Fluor #488-goat anti-rabbit IgG (Cat #A27034, Thermo Fisher Scientific) at 1:400 in PBS for 1 h at 4° C. in the dark. Cells were washed 3× with chilled PBS, and stained with DAPI (diluted to 0.1 mM) in PBS for 10 min at RT, and analyzed using a microscope (AMG EVOS FL digital inverted microscope, Fisher Scientific, ×400 magnification). For inhibition assay, anti-Tn CICs was preincubated with 100 mM α-methylGalNAc, or α-methylGlcNAc in PBS for 30 min at RT. Serum from three healthy controls (C3, C6, and pooled C1-C10; Cmix) and three IgAN (P5, P10, and pooled P1-P10; Pmix) were used in this assay. […] of serum with IgAN (P1-P20) or healthy control (C1-C20) was analyzed on SDS-PAGE gel, and stained with Coomassie.

## CO[C@H]1O[C@H](CO)[C@H](O)[C@H](O)[C@H]1NC(C)=O [α-methylGalNAc]
[1]
  dissociation of Tn(+)IgA1 from anti-Tn CICs: caused dissociation of the Tn(+)IgA1 from anti-Tn IgM immune complexes
[2]; anti-Tn CICs purified from IgAN patients pretreated with 100 mM compound
  inhibition of proliferative activity of anti-Tn CICs from IgAN patients toward mesangial cells: inhibits their proliferative activity toward mesangial cells; also recorded: failed to stimulate human renal mesangial cells
[2]; anti-Tn CICs purified from healthy control pretreated with 100 mM compound
  inhibition of proliferative activity of anti-Tn CICs from healthy control sera toward mesangial cells: did not significantly inhibit mesangial cell proliferation
